Experimental findings from patent US11000033B2, “Ketone or oxime compound, and herbicide” (NISSAN CHEMICAL CORPORATION, priority 2014, dated 2021) are described below.

Common to all, as to assay type: in vivo
Series [1] has as its system transplanted rice plant. Put plainly: Test Example 1: effect on crop, application before weed generation in submerged conditions (symbol a). The note with it: application herbicide amount 320 g/ha. An outline of the steps: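 Rice at 2.5 leaf stage transplanted into submerged soil (4 cm depth) sown with three weed species; herbicide applied before weed emergence.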
Series [2] relates to Echinochloa oryzacola Vasing. Put plainly: Test Example 2: herbicidal activity, application during weed generation in submerged conditions (symbol A). The conditions noted are these: Table 23; application herbicide amount 320 g/ha; grade 0-5 by criteria of Test Example 1. An outline of the steps: (§1)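 Steps: fill pots with alluvial soil; add water to 4 cm depth; co-sow the three weeds; grow at 25° C. to 30° C. under glass; at 1–2 leaves, dose the floodwater with diluted emulsion; rate damage visually after 3 weeks.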

The subject of series [3] is Scirpus juncoides. Put plainly: Test Example 2: herbicidal activity, application during weed generation in submerged conditions (symbol B). The conditions noted are these: Table 23; application herbicide amount 320 g/ha; grade 0-5 by criteria of Test Example 1. An outline of the steps:
as §1

The subject of series [4] is Leptochloa chinensis. Put plainly: Test Example 3: herbicidal effect by foliage application, Wagner pot (symbol D). The note with it: application herbicide amount 320 g/ha. An outline of the steps: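 Post-emergence, paddy-type test: seedlings 14 d old in shallow-flooded (0.1–0.5 cm) alluvial soil, 25–30 °C greenhouse. Emulsion diluted to target rate, sprayed on leaves. Read-out: visual effect on each species at 3 weeks, per set criteria.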

For series [5], the system named is Avena fatua. Put plainly: Test Example 4: herbicidal effect by soil treatment (symbol I). The note with it: for I (Avena fatua) herbicidal effect grade: application herbicide amount 320 g/ha. The essentials:
(§2)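 Seeds were sown in sterilized diluvial soil, covered with about 1.5 cm of soil, and the soil surface was sprayed with a water-diluted emulsion of the compound at a predetermined rate. Plants grew in a greenhouse at 25° C. to 30° C.; effects were scored visually 3 weeks after application.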

In series [6] the test system is Abutilon theophrasti. Put plainly: Test Example 4: herbicidal effect by soil treatment (symbol M). The conditions noted are these: for M (Abutilon theophrasti) herbicidal effect grade: application herbicide amount 320 g/ha. An outline of the steps:
as §2

Series [7] concerns soybean. Put plainly: Test Example 4: effect on crop by soil treatment (symbol d). The note with it: for d (soybean) effect on crop grade: application herbicide amount 320 g/ha. An outline of the steps: (§3)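 Plants are raised in a greenhouse (25° C. to 30° C.) from spot-sown seed, which sits under about 1.5 cm of sterilized diluvial soil in a box shared with weed species.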
Series [8] has as its system beet. Put plainly: Test Example 4: effect on crop by soil treatment (symbol f). The conditions noted are these: for f (beet) effect on crop grade: application herbicide amount 320 g/ha. The essentials:
as §3

Series [9] relates to Setaria viridis. Put plainly: Test Example 5: herbicidal effect by foliage application, plastic box (symbol G). The note with it: 320 g/ha, 3 weeks after application. An outline of the steps:
(§4)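 Post-emergence spray; diluvial soil (sterilized), ~1.5 cm seed cover; greenhouse 25–30° C; 14-day-old plants; water-diluted emulsion at predetermined dose; visual score at 3 wk post-treatment.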

Series [10] relates to Lolium multiflorum Lam. Put plainly: Test Example 5: herbicidal effect by foliage application, plastic box (symbol K). The conditions noted are these: 320 g/ha, 3 weeks after application. An outline of the steps: as §4
Series [11] concerns Abutilon theophrasti. Put plainly: Test Example 5: herbicidal effect by foliage application, plastic box (symbol M). The conditions noted are these: 320 g/ha, 3 weeks after application. An outline of the steps: as §4
In series [12] the test system is beet. Put plainly: Test Example 5: effect on crop by foliage application, plastic box (symbol f). The note with it: 320 g/ha, 3 weeks after application. The essentials: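 Box culture: sterile diluvial soil, seeds spot-sown, ~1.5 cm cover, raised under glass at 25–30° C.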

As to `CON=C(CC1CC(O)=C(c2c(C)cc(C)cc2C)C1=O)c1ccccc1` (stereo not drawn) [1-047], in series [1], the “Effect grade on crop, a: transplanted rice plant” value was 1 (Herbicidal ratio of 5% or higher and lower than 20%). The “Herbicidal effect grade, A: Echinochloa oryzacola Vasing.” value in series [2] is 2 (Herbicidal ratio of 20% or higher and lower than 40%). Further, the “Herbicidal effect grade, B: Scirpus juncoides” value (shortened to “Herbicidal effect grade, B”) in [3] is recorded as 0 (Herbicidal ratio of 5% or lower (almost no effect)). Moreover, in [4], the “herbicidal effect on D (Leptochloa chinensis), grade 0-5” value (from here on “herbicidal effect on D”) was 3 (Herbicidal ratio of 40% or higher and lower than 70%). Besides, the “I (Avena fatua) herbicidal effect grade” value in series [5] is recorded as 0 (Herbicidal ratio of 5% or lower (almost no effect)). For the same molecule, the “M (Abutilon theophrasti) herbicidal effect grade” value in series [6] is 0 (Herbicidal ratio of 5% or lower (almost no effect)). In addition, the “d (soybean) effect on crop grade” value in series [7] is listed as 0 (Herbicidal ratio of 5% or lower (almost no effect)). Besides, the “f (beet) effect on crop grade” value in series [8] was 0 (Herbicidal ratio of 5% or lower (almost no effect)). For the same molecule, the “G: Setaria viridis, herbicidal effect grade” value in [9] was 1 (Herbicidal ratio of 5% or higher and lower than 20%). Besides, the “K: Lolium multiflorum Lam., herbicidal effect grade” value in series [10] was 4 (Herbicidal ratio of 70% or higher and lower than 90%). The “M: Abutilon theophrasti, herbicidal effect grade” value in series [11] is on record as 0 (Herbicidal ratio of 5% or lower (almost no effect)). Moreover, in [12], the “f: beet, effect on crop grade” value is given as 0 (Herbicidal ratio of 5% or lower (almost no effect)).

Turning to `CCCCCCCCC(=O)OC1=C(c2c(C)cc(C)cc2C)C(=O)C(CC(C)=NOC)C1` (stereo not drawn) [1-033], the “Effect grade on crop, a: transplanted rice plant” value in series [1] was 5 (Herbicidal ratio of 90% or more (almost completely withered)). Besides, the “Herbicidal effect grade, A: Echinochloa oryzacola Vasing.” value in series [2] is listed as 5 (Herbicidal ratio of 90% or more (almost completely withered)). Also, the “Herbicidal effect grade, B” value in [3] is 4 (Herbicidal ratio of 70% or higher and lower than 90%). Moreover, in series [4], the “herbicidal effect on D” value is given as 5 (Herbicidal ratio of 90% or more (almost completely withered)). For the same molecule, the “I (Avena fatua) herbicidal effect grade” value in series [5] is 4 (Herbicidal ratio of 70% or higher and lower than 90%). In addition, the “M (Abutilon theophrasti) herbicidal effect grade” value in [6] is 5 (Herbicidal ratio of 90% or more (almost completely withered)). The “d (soybean) effect on crop grade” value in series [7] was 0 (Herbicidal ratio of 5% or lower (almost no effect)). The “f (beet) effect on crop grade” value in series [8] was 1 (Herbicidal ratio of 5% or higher and lower than 20%). In addition, the “G: Setaria viridis, herbicidal effect grade” value in [9] was 5 (Herbicidal ratio of 90% or more (almost completely withered)). Further, the “K: Lolium multiflorum Lam., herbicidal effect grade” value in series [10] is given as 5 (Herbicidal ratio of 90% or more (almost completely withered)). In addition, in [11], the “M: Abutilon theophrasti, herbicidal effect grade” value was 4 (Herbicidal ratio of 70% or higher and lower than 90%). For the same molecule, the “f: beet, effect on crop grade” value in series [12] was 3 (Herbicidal ratio of 40% or higher and lower than 70%).

`CON=C(C)CC1CC(O)=C(c2c(C)cc(C)cc2C)C1=O` (stereo not drawn) [1-002, 3-hydroxy-2-mesityl-5-{2-(methoxyimino)propyl}cyclopent-2-enone]: the “Effect grade on crop, a: transplanted rice plant” value in [1] was 5 (Herbicidal ratio of 90% or more (almost completely withered)). For the same molecule, the “Herbicidal effect grade, A: Echinochloa oryzacola Vasing.” value in series [2] was 5 (Herbicidal ratio of 90% or more (almost completely withered)). Also, the “Herbicidal effect grade, B” value in [3] was 3 (Herbicidal ratio of 40% or higher and lower than 70%). Further, the “herbicidal effect on D” value in [4] is reported as 5 (Herbicidal ratio of 90% or more (almost completely withered)). Moreover, in series [5], the “I (Avena fatua) herbicidal effect grade” value is 5 (Herbicidal ratio of 90% or more (almost completely withered)). Further, the “M (Abutilon theophrasti) herbicidal effect grade” value in series [6] is on record as 5 (Herbicidal ratio of 90% or more (almost completely withered)). In [7], the “d (soybean) effect on crop grade” value is 0 (Herbicidal ratio of 5% or lower (almost no effect)). Also, in [8], the “f (beet) effect on crop grade” value was 3 (Herbicidal ratio of 40% or higher and lower than 70%). For the same molecule, the “G: Setaria viridis, herbicidal effect grade” value in series [9] is 5 (Herbicidal ratio of 90% or more (almost completely withered)). Further, the “K: Lolium multiflorum Lam., herbicidal effect grade” value in [10] was 5 (Herbicidal ratio of 90% or more (almost completely withered)). For the same molecule, in [11], the “M: Abutilon theophrasti, herbicidal effect grade” value is 4 (Herbicidal ratio of 70% or higher and lower than 90%). For the same molecule, in series [12], the “f: beet, effect on crop grade” value is 5 (Herbicidal ratio of 90% or more (almost completely withered)).

As for `CON=C(C)CC1CC(OC(=O)COCC(F)(F)F)=C(c2c(C)cc(C)cc2C)C1=O` (stereo not drawn) [1-092], the “Effect grade on crop, a: transplanted rice plant” value in series [1] is given as 5 (Herbicidal ratio of 90% or more (almost completely withered)). Also, in [2], the “Herbicidal effect grade, A: Echinochloa oryzacola Vasing.” value is reported as 5 (Herbicidal ratio of 90% or more (almost completely withered)). Also, the “Herbicidal effect grade, B” value in series [3] was 4 (Herbicidal ratio of 70% or higher and lower than 90%). Moreover, in series [4], the “herbicidal effect on D” value is on record as 5 (Herbicidal ratio of 90% or more (almost completely withered)). Also, the “I: Avena fatua, herbicidal effect grade” value in series [5] (320 g/ha) is 2 (Herbicidal ratio of 20% or higher and lower than 40%). In series [6] (320 g/ha), the “M: Abutilon theophrasti, herbicidal effect grade” value is 3 (Herbicidal ratio of 40% or higher and lower than 70%). Besides, in series [7] (320 g/ha), the “d: soybean, effect grade on crop” value is 0 (Herbicidal ratio of 5% or lower (almost no effect)). In addition, the “f: beet, effect grade on crop” value in series [8] (320 g/ha) is recorded as 0 (Herbicidal ratio of 5% or lower (almost no effect)). The “G: Setaria viridis, herbicidal effect (criteria 0-5)” value in series [9] is on record as 5 (Herbicidal ratio of 90% or more (almost completely withered)). For the same molecule, in series [10], the “K: Lolium multiflorum Lam., herbicidal effect (criteria 0-5)” value is listed as 5 (Herbicidal ratio of 90% or more (almost completely withered)). Also, the “M: Abutilon theophrasti, herbicidal effect (criteria 0-5)” value in [11] was 3 (Herbicidal ratio of 40% or higher and lower than 70%). In series [12], the “f: beet, effect on crop (criteria 0-5)” value is reported as 0 (Herbicidal ratio of 5% or lower (almost no effect)).

In the case of `CCCCCCCON=C(C)CC1CC(O)=C(c2c(C)cc(C)cc2C)C1=O` (stereo not drawn) [1-054], in [1], the “Effect grade on crop, a: transplanted rice plant” value is given as 5 (Herbicidal ratio of 90% or more (almost completely withered)). Further, the “Herbicidal effect grade, A: Echinochloa oryzacola Vasing.” value in series [2] was 3 (Herbicidal ratio of 40% or higher and lower than 70%). Moreover, in series [3], the “Herbicidal effect grade, B” value is 0 (Herbicidal ratio of 5% or lower (almost no effect)). In series [4], the “herbicidal effect on D” value was 3 (Herbicidal ratio of 40% or higher and lower than 70%). The “I (Avena fatua) herbicidal effect grade” value in [5] was 0 (Herbicidal ratio of 5% or lower (almost no effect)). The “M (Abutilon theophrasti) herbicidal effect grade” value in series [6] is reported as 0 (Herbicidal ratio of 5% or lower (almost no effect)). Besides, the “d (soybean) effect on crop grade” value in series [7] is on record as 0 (Herbicidal ratio of 5% or lower (almost no effect)). In addition, the “f (beet) effect on crop grade” value in series [8] is given as 0 (Herbicidal ratio of 5% or lower (almost no effect)). Moreover, the “G: Setaria viridis, herbicidal effect grade” value in [9] is 3 (Herbicidal ratio of 40% or higher and lower than 70%). Further, the “K: Lolium multiflorum Lam., herbicidal effect grade” value in series [10] is reported as 5 (Herbicidal ratio of 90% or more (almost completely withered)). Further, in series [11], the “M: Abutilon theophrasti, herbicidal effect grade” value was 0 (Herbicidal ratio of 5% or lower (almost no effect)). The “f: beet, effect on crop grade” value in [12] is given as 0 (Herbicidal ratio of 5% or lower (almost no effect)).

On to `CC(CC1CC(O)=C(c2c(C)cc(C)cc2C)C1=O)=NOCC=CCl` (stereo not drawn) [1-056], for which, in [1], the “Effect grade on crop, a: transplanted rice plant” value is given as 5 (Herbicidal ratio of 90% or more (almost completely withered)). Besides, the “Herbicidal effect grade, A: Echinochloa oryzacola Vasing.” value in [2] was 5 (Herbicidal ratio of 90% or more (almost completely withered)). Further, the “Herbicidal effect grade, B” value in series [3] was 5 (Herbicidal ratio of 90% or more (almost completely withered)). The “herbicidal effect on D” value in [4] is recorded as 5 (Herbicidal ratio of 90% or more (almost completely withered)). Besides, the “I (Avena fatua) herbicidal effect grade” value in [5] was 3 (Herbicidal ratio of 40% or higher and lower than 70%). Besides, in [6], the “M (Abutilon theophrasti) herbicidal effect grade” value is 4 (Herbicidal ratio of 70% or higher and lower than 90%). Moreover, in series [7], the “d (soybean) effect on crop grade” value is given as 0 (Herbicidal ratio of 5% or lower (almost no effect)). For the same molecule, in series [8], the “f (beet) effect on crop grade” value is 0 (Herbicidal ratio of 5% or lower (almost no effect)). Besides, the “G: Setaria viridis, herbicidal effect grade” value in [9] is given as 5 (Herbicidal ratio of 90% or more (almost completely withered)). In addition, the “K: Lolium multiflorum Lam., herbicidal effect grade” value in [10] is 5 (Herbicidal ratio of 90% or more (almost completely withered)). In addition, in [11], the “M: Abutilon theophrasti, herbicidal effect grade” value is 4 (Herbicidal ratio of 70% or higher and lower than 90%). Also, the “f: beet, effect on crop grade” value in [12] is listed as 0 (Herbicidal ratio of 5% or lower (almost no effect)).
